In ChEMBL document CHEMBL5380833 (J Med Chem, 2023):
The source made the active and inactive calls. The rule behind the calls is not given here.

How the values were obtained:
[1] = MRT last in Balb/c mouse at 5 mg/kg, iv measured upto 24 hrs by LC-MS/MS analysis; type: ADME, organism-based; settings: Balb/c, in vivo
[2] = AUC (0 to t) in Balb/c mouse at 5 mg/kg, iv measured upto 24 hrs by LC-MS/MS analysis; type: ADME, organism-based; design: dose 5 mg/kg, time < 24 hrs, route iv; settings: in vivo
[3] = Toxicity in Balb/c mouse assessed as drug tolerance at 10 mg/kg, ip measured upto 24 hrs by LC-MS/MS analysis; type: organism-based; settings: in vivo
Jurkat [4] = assay: Effect on IKZF3 expression in human Jurkat cells at 100 nM measured after 8 hrs by proteomics analysis; type: functional, cell-based
[5] = MRT last in Balb/c mouse at 10 mg/kg, ip measured upto 24 hrs by LC-MS/MS analysis; type: ADME, organism-based; settings: in vivo
[6] = Volume of distribution at steady state in Balb/c mouse at 5 mg/kg, iv measured upto 24 hrs by LC-MS/MS analysis; type: ADME, organism-based; settings: in vivo, read-out: Vdss
[7] = Clearance in Balb/c mouse at 5 mg/kg, iv measured upto 24 hrs by LC-MS/MS analysis; type: ADME, organism-based; settings: in vivo
[8] = molecular target: T1, Protein cereblon/Tyrosine-protein kinase ITK/TSK (Homo sapiens, UniProt Q08881+Q96SW2); assay: PROTAC activity at CRBN/ITK in human Jurkat cells assessed as induction of ITK degradation by Western blot analysis; type: cell-based; settings: read-out: EC50
Target sequence in this assay (Q08881 whole entry): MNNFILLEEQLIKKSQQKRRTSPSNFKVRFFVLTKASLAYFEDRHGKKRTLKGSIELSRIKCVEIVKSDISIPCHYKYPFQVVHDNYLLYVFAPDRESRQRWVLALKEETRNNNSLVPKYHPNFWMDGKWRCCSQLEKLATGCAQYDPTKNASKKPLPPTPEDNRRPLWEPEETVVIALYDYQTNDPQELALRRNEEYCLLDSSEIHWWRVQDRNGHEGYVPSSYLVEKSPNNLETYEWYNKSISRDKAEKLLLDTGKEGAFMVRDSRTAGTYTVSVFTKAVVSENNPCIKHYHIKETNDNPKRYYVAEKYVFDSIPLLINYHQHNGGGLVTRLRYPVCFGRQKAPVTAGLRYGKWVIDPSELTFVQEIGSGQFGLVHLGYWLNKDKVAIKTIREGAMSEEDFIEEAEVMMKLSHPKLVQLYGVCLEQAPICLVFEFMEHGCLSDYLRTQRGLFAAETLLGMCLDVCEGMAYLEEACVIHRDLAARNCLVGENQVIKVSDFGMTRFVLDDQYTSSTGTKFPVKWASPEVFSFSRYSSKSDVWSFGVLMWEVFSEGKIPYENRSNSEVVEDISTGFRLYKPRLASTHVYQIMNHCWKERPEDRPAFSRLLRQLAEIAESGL
Target sequence in this assay (Q96SW2 whole entry): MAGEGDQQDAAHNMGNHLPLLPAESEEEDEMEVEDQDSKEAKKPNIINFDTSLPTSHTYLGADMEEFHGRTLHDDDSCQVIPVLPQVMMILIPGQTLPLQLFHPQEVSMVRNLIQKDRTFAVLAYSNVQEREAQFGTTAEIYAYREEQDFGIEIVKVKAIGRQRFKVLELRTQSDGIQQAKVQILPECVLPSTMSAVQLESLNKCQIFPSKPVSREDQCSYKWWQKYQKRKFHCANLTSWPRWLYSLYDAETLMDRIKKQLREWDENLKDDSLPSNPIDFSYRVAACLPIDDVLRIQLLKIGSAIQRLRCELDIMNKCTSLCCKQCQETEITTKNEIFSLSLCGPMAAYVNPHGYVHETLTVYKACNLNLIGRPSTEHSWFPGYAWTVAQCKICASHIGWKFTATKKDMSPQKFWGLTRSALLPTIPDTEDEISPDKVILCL

[9] = Half life in Balb/c mouse at 5 mg/kg, iv measured upto 24 hrs by LC-MS/MS analysis; type: ADME, organism-based; settings: in vivo
[10] = AUC (0 to infinity) in Balb/c mouse at 5 mg/kg, iv measured upto 24 hrs by LC-MS/MS analysis; type: ADME, organism-based; design: time < 24 hrs, dose 5 mg/kg, route iv; settings: in vivo
[11] = Toxicity in Balb/c mouse assessed as drug tolerance at 5 mg/kg, iv measured upto 24 hrs by LC-MS/MS analysis; type: organism-based; settings: in vivo
[12] = Half life in Balb/c mouse at 10 mg/kg, ip measured upto 24 hrs by LC-MS/MS analysis; type: ADME, organism-based; settings: in vivo
[13] = molecular target: T2, Protein cereblon/Tyrosine-protein kinase ITK/TSK (Mus musculus) (UniProt Q8C7D2+Q03526); assay: PROTAC activity at CRBN/ITK in Balc/c mouse Primary splenic cell assessed as maximum degradation at 0.32 to 5000 nM by immunoblotting analysis relative to control; type: cell-based; settings: dose 0.32-5000 nM
[14] = Toxicity in Balb/c mouse assessed as side effects at 5 mg/kg, iv measured upto 24 hrs by LC-MS/MS analysis; type: organism-based; settings: in vivo
[15] = molecular target: T2, Protein cereblon/Tyrosine-protein kinase ITK/TSK (Mus musculus); assay: In vivo PROTAC activity at CRBN/ITK xenografted in Balb/c mouse spleen assessed as prolongation of ITK degradation at 20 mg/kg, ip measured for 2 to 16 hrs by Western blot analysis; type: functional, organism-based; settings: time 2-16 hrs
[16] = Toxicity in Balb/c mouse assessed as side effects at 10 mg/kg, ip measured upto 24 hrs by LC-MS/MS analysis; type: organism-based; settings: in vivo
[17] = molecular target: T2, Protein cereblon/Tyrosine-protein kinase ITK/TSK (Mus musculus); assay: In vivo PROTAC activity at CRBN/ITK xenografted in Balb/c mouse peripheral blood assessed as prolongation of ITK degradation at 20 mg/kg, ip measured for 2 to 16 hrs by Western blot analysis; type: functional, organism-based; settings: time 2-16 hrs
[18] = Clearance in Balb/c mouse at 10 mg/kg, ip measured upto 24 hrs by LC-MS/MS analysis; type: ADME, organism-based; settings: in vivo
[19] = Bioavailability in Balb/c mouse at 10 mg/kg, ip measured upto 24 hrs by LC-MS/MS analysis; type: ADME, organism-based; settings: in vivo
[20] = molecular target: T3, Protein cereblon/Tyrosine-protein kinase ITK/TSK (Mus musculus, UniProt Q8C7D2+Q03526); assay: (§1) PROTAC activity at CRBN/ITK in Balc/c mouse Primary splenic cell assessed as ITK degradation by immunoblotting analysis; type: cell-based
T3 sequence (Q8C7D2 whole entry): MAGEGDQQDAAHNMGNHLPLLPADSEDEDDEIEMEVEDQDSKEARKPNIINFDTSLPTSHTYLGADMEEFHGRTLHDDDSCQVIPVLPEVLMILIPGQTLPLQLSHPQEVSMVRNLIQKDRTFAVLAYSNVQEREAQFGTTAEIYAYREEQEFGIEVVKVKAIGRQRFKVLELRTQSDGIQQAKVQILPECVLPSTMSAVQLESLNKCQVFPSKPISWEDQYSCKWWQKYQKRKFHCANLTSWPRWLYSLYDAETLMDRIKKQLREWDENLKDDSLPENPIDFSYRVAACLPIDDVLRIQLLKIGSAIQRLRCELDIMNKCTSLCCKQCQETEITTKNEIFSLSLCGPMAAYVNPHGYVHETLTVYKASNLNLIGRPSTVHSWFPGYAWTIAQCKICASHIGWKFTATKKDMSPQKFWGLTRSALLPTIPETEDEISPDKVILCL
T3 sequence (Q03526 whole entry): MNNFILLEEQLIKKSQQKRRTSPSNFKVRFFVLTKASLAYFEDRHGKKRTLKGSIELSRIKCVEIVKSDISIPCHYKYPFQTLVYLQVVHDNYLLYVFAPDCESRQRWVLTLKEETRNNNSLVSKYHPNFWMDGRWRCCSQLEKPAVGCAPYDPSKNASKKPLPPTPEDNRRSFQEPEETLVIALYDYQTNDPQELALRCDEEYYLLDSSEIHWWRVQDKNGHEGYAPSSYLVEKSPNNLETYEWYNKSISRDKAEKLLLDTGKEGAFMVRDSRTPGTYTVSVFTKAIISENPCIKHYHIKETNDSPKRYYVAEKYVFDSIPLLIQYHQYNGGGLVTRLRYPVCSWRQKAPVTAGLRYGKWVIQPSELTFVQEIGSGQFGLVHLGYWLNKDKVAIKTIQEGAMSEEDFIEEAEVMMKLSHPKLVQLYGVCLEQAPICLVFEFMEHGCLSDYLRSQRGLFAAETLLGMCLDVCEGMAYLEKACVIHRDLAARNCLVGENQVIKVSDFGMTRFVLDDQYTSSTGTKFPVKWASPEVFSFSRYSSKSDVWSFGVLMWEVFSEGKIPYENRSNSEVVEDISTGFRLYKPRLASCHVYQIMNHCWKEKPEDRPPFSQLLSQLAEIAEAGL

[21] = molecular target: T2, Protein cereblon/Tyrosine-protein kinase ITK/TSK (Mus musculus); assay: as §1; type: cell-based; settings: dose 0.32-5000 nM
[22] = Cmax in Balb/c mouse at 5 mg/kg, iv measured upto 24 hrs by LC-MS/MS analysis; type: ADME, organism-based; design: time < 24 hrs, dose 5 mg/kg, route iv; settings: in vivo
[23] = Volume of distribution at steady state in Balb/c mouse at 10 mg/kg, ip measured upto 24 hrs by LC-MS/MS analysis; type: ADME, organism-based; settings: in vivo
[24] = molecular target: T2, Protein cereblon/Tyrosine-protein kinase ITK/TSK (Mus musculus); assay: In vivo PROTAC activity at CRBN/ITK xenografted in Balb/c mouse assessed as reduction in cytokine IL-2 production at 25 mg/kg, ip preincubated for 6 hrs followed by abti-CD3 stimulation and measured after 1.5 hrs by ELISA method relative to control; type: functional, organism-based; design: scale not given: the % may be the effect or the level left; settings: time 7.5 hrs
Jurkat [25] = assay: Effect on IKZF1 expression in human Jurkat cells at 100 nM measured after 8 hrs by proteomics analysis; type: functional, cell-based
Jurkat [26] = assay: Effect on GSPT1 expression in human Jurkat cells at 100 nM measured after 8 hrs by proteomics analysis; type: functional, cell-based
[27] = molecular target: T1, Protein cereblon/Tyrosine-protein kinase ITK/TSK; assay: PROTAC activity at CRBN/ITK in human Jurkat cells assessed as downregulation of ITK protein by measuring fold change at 100 nM measured after 8 hrs; type: cell-based
Target sequence in this assay (Q08881 whole entry, looked up): as the sequence (Q08881 whole entry) above
Target sequence in this assay (Q96SW2 whole entry, looked up): as the sequence (Q96SW2 whole entry) above

[28] = molecular target: T1, Protein cereblon/Tyrosine-protein kinase ITK/TSK; assay: PROTAC activity at CRBN/ITK in human Jurkat cells assessed as maximum degradation at 0.01 to 10 uM by Western blot analysis relative to control; type: cell-based; settings: dose 0.01-10 µM
Target sequence in this assay (Q08881 whole entry, looked up): as the sequence (Q08881 whole entry) above
Target sequence in this assay (Q96SW2 whole entry, looked up): as the sequence (Q96SW2 whole entry) above

[29] = AUC (0 to t) in Balb/c mouse at 10 mg/kg, ip measured upto 24 hrs by LC-MS/MS analysis; type: ADME, organism-based; design: time < 24 hrs, dose 10 mg/kg, route ip; settings: in vivo
Interleukin-2 = Interleukin-2 (Homo sapiens, UniProt P60568); assay: Inhibition of IL-2 in human Jurkat cells pretreated with compound for 4 hrs followed by anti-CD3/CD28 stimulation by ELISA analysis; type: cell-based
[30] = AUC (0 to infinity) in Balb/c mouse at 10 mg/kg, ip measured upto 24 hrs by LC-MS/MS analysis; type: ADME, organism-based; design: dose 10 mg/kg, time < 24 hrs, route ip; settings: in vivo
[31] = Cmax in Balb/c mouse at 10 mg/kg, ip measured upto 24 hrs by LC-MS/MS analysis; type: ADME, organism-based; design: dose 10 mg/kg, time < 24 hrs, route ip; settings: in vivo
Jurkat [32] = assay: Effect on CK1alpha expression in human Jurkat cells at 100 nM measured after 8 hrs by proteomics analysis; type: functional, cell-based

Chain of Interleukin-2 (P60568 whole entry): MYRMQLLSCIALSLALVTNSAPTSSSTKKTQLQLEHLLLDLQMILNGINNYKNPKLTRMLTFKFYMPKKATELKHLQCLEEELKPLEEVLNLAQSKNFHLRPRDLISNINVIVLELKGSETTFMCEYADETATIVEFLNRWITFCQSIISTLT

- MRT last at 24 h [1]: 4.42 h
- AUC(0-t) at 24 h [2]: 15100 ng·h/mL
- MRT last at 24 h [5]: 5.84 h
- Vd [6]: 2.06 L/kg
- clearance [7]: 5.4 mL/min/kg
- EC50 [8]: 3.6 nM
- half-life [9]: 4.39 h
- AUC(0-inf) [10]: 15400 ng·h/mL
- half-life [12]: 5.75 h
- Emax [13]: > 99%
- Activity [15]: Active
- Activity [17]: Active
- CL/F [18]: 6.1 mL/min/kg
- bioavailability [19]: 88.4%
- DC50 [20]: 2.1 nM
- Activity [21]: Dose-Dependent Effect
- Cmax [22]: 4910 ng/mL
- Vdss [23]: 3.06 L/kg
- Activity [24]: 70%
- fold change (FC) [27]: 0.37
- Emax [28]: 95%
- AUC(0-t) at 24 h [29]: 25900 ng·h/mL
- EC50 (Interleukin-2): 35.2 nM
- AUC(0-inf) [30]: 27300 ng·h/mL
- Cmax [31]: 3420 ng/mL
SMILES: CC1(C)CCc2c(C(=O)Nc3cnn([C@@H](CCN4CCN(CCC5CCN(c6ccc7c(c6)C(=O)N(C6CCC(=O)NC6=O)C7=O)CC5)CC4)c4ccccc4)c3)n[nH]c2C1.O=C(O)C(F)(F)F (stereo partly drawn)
- Activity [3]: Non-Toxic
- Activity (Jurkat [4]): inactive
- Activity [11]: Non-Toxic
- Activity [14]: Non-Toxic
- Activity [16]: Non-Toxic
- Activity (Jurkat [25]): inactive
- Activity (Jurkat [26]): inactive
- Activity (Jurkat [32]): inactive
